Like-named read-outs stand apart in the source and are kept apart here.
Columns and labels:
[1] = target: T1, human dihydroorotate dehydrogenase (HsDHODH) (Homo sapiens, UniProt Q02127); assay: Inhibition of recombinant human DHODH enzyme activity; assay type: biochemical; conditions: recombinant human DHODH; purified enzyme fixed at 10 nM; read-out: IC50 (nM), inhibition of human DHODH
T1 construct: made in house

DLD-1 cells = assay: Cytotoxicity assay (Cell Counting Kit-8 / WST-8) on DLD-1 cells; assay type: cell-based, human; conditions: for IC50: Homo sapiens
Complexes I–III = assay: NADH-cytochrome c reductase (complexes I–III) activity, bovine mitochondria; assay type: biochemical
How it was run: (§1)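 Bovine mitochondrial fractions served as enzyme source. NADH-cytochrome c reductase (complexes I–III) and succinate-cytochrome c reductase (complexes II–III) activities were measured by established published methods.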

Complex II–III = assay: Succinate-cytochrome c reductase (complexes II–III) activity, bovine mitochondria; assay type: biochemical
How it was run: as §1

Complex III = target: T2, Complex III (Bos taurus, UniProt P00157); assay: Quinol oxidase (complex III) activity, bovine mitochondria; assay type: biochemical; conditions: ubiquinol oxidase activity
T2 construct: from tissue; host or cells: bovine mitochondrial fraction / sub-mitochondrial particles

HBC-4 = assay: 39-cancer cell panel assay: HBC-4; assay type: cell-based; conditions: Homo sapiens, HBC4, Br
BSY-1 = assay: 39-cancer cell panel assay: BSY-1; assay type: cell-based; conditions: Homo sapiens, Br
MCF-7 = assay: 39-cancer cell panel assay: MCF-7; assay type: cell-based; conditions: Homo sapiens, MCF7, Br
U251 = assay: 39-cancer cell panel assay: U251; assay type: cell-based; conditions: Homo sapiens, U-251, CNS
SF-268 = assay: 39-cancer cell panel assay: SF-268; assay type: cell-based; conditions: Homo sapiens, CNS
SF-295 = assay: 39-cancer cell panel assay: SF-295; assay type: cell-based; conditions: Homo sapiens, CNS
SF-539 = assay: 39-cancer cell panel assay: SF-539; assay type: cell-based; conditions: Homo sapiens, CNS
SNB-75 = assay: 39-cancer cell panel assay: SNB-75; assay type: cell-based; conditions: Homo sapiens, CNS
HCC2998 = assay: 39-cancer cell panel assay: HCC2998; assay type: cell-based; conditions: Homo sapiens, HCC 2998, Co
KM-12 = assay: 39-cancer cell panel assay: KM-12; assay type: cell-based, human; conditions: Co
HT-29 = assay: 39-cancer cell panel assay: HT-29; assay type: cell-based; conditions: Homo sapiens, Co
HCT-15 = assay: 39-cancer cell panel assay: HCT-15; assay type: cell-based; conditions: Homo sapiens, Co
HCT-116 = assay: 39-cancer cell panel assay: HCT-116; assay type: cell-based; conditions: Homo sapiens, Co
NCI-H23 = assay: 39-cancer cell panel assay: NCI-H23; assay type: cell-based; conditions: Homo sapiens, Lu
NCI-H226 = assay: 39-cancer cell panel assay: NCI-H226; assay type: cell-based; conditions: Homo sapiens, Lu
NCI-H522 = assay: 39-cancer cell panel assay: NCI-H522; assay type: cell-based; conditions: Homo sapiens, Lu
NCI-H460 = assay: 39-cancer cell panel assay: NCI-H460; assay type: cell-based; conditions: Homo sapiens, Lu
A549 = assay: 39-cancer cell panel assay: A549; assay type: cell-based; conditions: Homo sapiens, Lu
DMS273 = assay: 39-cancer cell panel assay: DMS273; assay type: cell-based; conditions: Homo sapiens, DMS-273, Lu
DMS114 = assay: 39-cancer cell panel assay: DMS114; assay type: cell-based; conditions: Homo sapiens, DMS-114, Lu
LOX-IMVI = assay: 39-cancer cell panel assay: LOX-IMVI; assay type: cell-based; conditions: Homo sapiens, Me
OVCAR-3 = assay: 39-cancer cell panel assay: OVCAR-3; assay type: cell-based; conditions: Homo sapiens, Ov
OVCAR-4 = assay: 39-cancer cell panel assay: OVCAR-4; assay type: cell-based; conditions: Homo sapiens, Ov
OVCAR-5 = assay: 39-cancer cell panel assay: OVCAR-5; assay type: cell-based; conditions: Homo sapiens, Ov
OVCAR-8 = assay: 39-cancer cell panel assay: OVCAR-8; assay type: cell-based; conditions: Homo sapiens, Ov
SK-OV-3 = assay: 39-cancer cell panel assay: SK-OV-3; assay type: cell-based; conditions: Homo sapiens
ACHN = assay: 39-cancer cell panel assay: ACHN; assay type: cell-based; conditions: Homo sapiens, Re
St-4 = assay: 39-cancer cell panel assay: St-4; assay type: cell-based; conditions: Homo sapiens
MKN1 = assay: 39-cancer cell panel assay: MKN1; assay type: cell-based; conditions: Homo sapiens, MKN-1, St
MKN7 = assay: 39-cancer cell panel assay: MKN7; assay type: cell-based; conditions: Homo sapiens, MKN-7, St
MKN45 = assay: 39-cancer cell panel assay: MKN45; assay type: cell-based; conditions: Homo sapiens, MKN-45, St
MKN74 = assay: 39-cancer cell panel assay: MKN74; assay type: cell-based; conditions: Homo sapiens, MKN-74, St
DU-145 = assay: 39-cancer cell panel assay: DU-145; assay type: cell-based; conditions: Homo sapiens, Pro
PC-3 = assay: 39-cancer cell panel assay: PC-3; assay type: cell-based; conditions: Homo sapiens, Pro
[2] = read-out: IC50 (μM) DLD-1 (24 h) Hypoxia nutrient (-), DLD-1, 24 h, hypoxia (1% oxygen), nutrient (-)
[3] = read-out: IC50 (μM) DLD-1 (24 h) Normoxia nutrient (+), DLD-1, 24 h, normoxia, nutrient (+)
[4] = DLD-1, 48 h, hypoxia (1% oxygen), nutrient (-), read-out: IC50 (μM) DLD-1 (48 h) Hypoxia nutrient (-)
[5] = DLD-1, 48 h, normoxia, nutrient (+), read-out: IC50 (μM) DLD-1 (48 h) Normoxia nutrient (+)

T1 sequence (Q02127 whole entry): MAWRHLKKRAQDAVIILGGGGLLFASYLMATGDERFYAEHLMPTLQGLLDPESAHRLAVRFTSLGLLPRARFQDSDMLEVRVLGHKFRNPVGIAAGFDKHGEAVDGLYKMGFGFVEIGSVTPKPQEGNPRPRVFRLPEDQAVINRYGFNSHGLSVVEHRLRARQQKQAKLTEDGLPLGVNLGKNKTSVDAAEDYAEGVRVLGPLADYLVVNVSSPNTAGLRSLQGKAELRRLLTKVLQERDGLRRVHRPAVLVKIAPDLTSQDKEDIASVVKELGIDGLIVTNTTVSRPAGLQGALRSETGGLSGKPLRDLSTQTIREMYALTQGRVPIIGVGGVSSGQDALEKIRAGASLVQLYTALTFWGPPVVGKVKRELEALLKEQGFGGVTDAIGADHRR

`C/C(=C\Cc1c(O)c(Cl)c(C)c(C=O)c1O)CC/C=C(\C)[C@@H]1CC(=O)C(C)(C)O1` [Compound 1, ascofuranone] showed an IC50 [1] of 37.5 ± 12 nM, an IC50 (DLD-1 cells; [2]) of 1.2 ± 0.79 µM and an IC50 (DLD-1 cells; [3]) greater than 100 µM. It also gave an IC50 (DLD-1 cells; [4]) of 0.24 ± 0.057 µM, an IC50 (DLD-1 cells; [5]) greater than 100 µM and an IC50 (Complexes I–III) of 1.5 ± 0.04 µM. For the same compound, the IC50 (Complex II–III) was 13 ± 1.7 µM, the inhibition at 5 µM (Complex III) was 36 ± 1.2% and the GI50 (HBC-4) was 9.1 µM. It also gave a GI50 (BSY-1) of 16 µM, a GI50 (MCF-7) of 9 µM and a GI50 (U251) of 1.5 µM. The GI50 (SF-268) was 7 µM, the GI50 (SF-295) was 5.3 µM and the GI50 (SF-539) was 1.7 µM. For the same compound, the GI50 (SNB-75) was 23 µM, the GI50 (HCC2998) was 17 µM and the “GI50 (μM) KM-12” value (KM-12) was 9.3 µM. For the same compound, the GI50 (HT-29) was 6.6 µM, the GI50 (HCT-15) was 1.3 µM and the GI50 (HCT-116) was 5.1 µM. The GI50 (NCI-H23) was 15 µM, the GI50 (NCI-H226) was 15 µM and the GI50 (NCI-H522) was 8.4 µM. It also gave a GI50 (NCI-H460) of 2 µM, a GI50 (A549) of 7.6 µM and a GI50 (DMS273) of 5.9 µM. For the same compound, the GI50 (DMS114) was 19 µM, the GI50 (LOX-IMVI) was 2.8 µM and the GI50 (OVCAR-3) was 8 µM. For the same compound, the GI50 (OVCAR-4) was 5.9 µM, the GI50 (OVCAR-5) was 7.6 µM and the GI50 (OVCAR-8) was 9.5 µM. For the same compound, the GI50 (SK-OV-3) was 13 µM, the GI50 (ACHN) was 10 µM and the GI50 (St-4) was 14 µM. It also gave a GI50 (MKN1) of 14 µM, a GI50 (MKN7) of 15 µM and a GI50 (MKN45) of 10 µM. For the same compound, the GI50 (MKN74) was 13 µM, the GI50 (DU-145) was 11 µM and the GI50 (PC-3) was 13 µM.
In the case of `CC(C)=CCC/C(C)=C/CC/C(C)=C/Cc1c(O)c(Cl)c(C)c(C=O)c1O` [Compound 8], the IC50 [1] is reported as roughly 5 nM, the “IC50 fold lower than 1” value (DLD-1 cells; DLD-1, 24 h, hypoxia nutrient-deprived, versus compound 1) is reported as 20 fold and the IC50 (DLD-1 cells; [2]) is reported as 0.066 ± 0.042 µM. The IC50 (DLD-1 cells; [3]) was 81 ± 24 µM, the IC50 (DLD-1 cells; [4]) was 0.024 ± 0.003 µM and the IC50 (DLD-1 cells; [5]) was 38 ± 3.3 µM. For the same compound, the “selectivity ratio, microenvironment versus normal culture condition” value (DLD-1 cells; hypoxia and nutrient-deprived versus normal culture) was “over 1000 fold”, the IC50 (Complexes I–III) was 0.048 ± 0.001 µM and the IC50 (Complex II–III) was 0.12 ± 0.013 µM. For the same compound, the inhibition at 5 µM (Complex III) was greater than 80%, the GI50 (HBC-4) was 2.2 µM and the GI50 (BSY-1) was 13 µM. For the same compound, the GI50 (MCF-7) was 1.3 µM, the GI50 (U251) was 0.43 µM and the GI50 (SF-268) was 0.93 µM. The GI50 (SF-295) was 1.3 µM, the GI50 (SF-539) was 0.24 µM and the GI50 (SNB-75) was 0.7 µM. For the same compound, the GI50 (HCC2998) was 12 µM, the “GI50 (μM) KM-12” value (KM-12) was 2.0 µM and the GI50 (HT-29) was 1.1 µM. For the same compound, the GI50 (HCT-15) was 0.043 µM, the GI50 (HCT-116) was 0.46 µM and the GI50 (NCI-H23) was 2.8 µM. For the same compound, the GI50 (NCI-H226) was 10 µM, the GI50 (NCI-H522) was 1.2 µM and the GI50 (NCI-H460) was 0.21 µM. The GI50 (A549) was 0.77 µM, the GI50 (DMS273) was 0.45 µM and the GI50 (DMS114) was 2.5 µM. For the same compound, the GI50 (LOX-IMVI) was 0.61 µM, the GI50 (OVCAR-3) was 1.9 µM and the GI50 (OVCAR-4) was 13 µM. The GI50 (OVCAR-5) was 6.6 µM, the GI50 (OVCAR-8) was 0.97 µM and the GI50 (SK-OV-3) was 37 µM. It also gave a GI50 (ACHN) of 0.79 µM, a GI50 (St-4) of 1.1 µM and a GI50 (MKN1) of 8.2 µM. The GI50 (MKN7) was 2.1 µM, the GI50 (MKN45) was 6.4 µM and the GI50 (MKN74) was 1.9 µM. The GI50 (DU-145) was 0.26 µM and the GI50 (PC-3) was 1.2 µM.

From article PMC6131557, “Selective Cytotoxicity of Dihydroorotate Dehydrogenase Inhibitors to Human Cancer Cells Under Hypoxia and Nutrient-Deprived Conditions” (Frontiers in Pharmacology, 2018)
